As a reminder, the IC50 is the midpoint of a concentration-inhibition curve.

Structures are written as SMILES. Calls of active or inactive are those of the source.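 The calls were made as follows: active = compounds whose average half-maximal inhibitory concentration on the enzyme falls below 100 micromolar; inactive = the rest.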

Results on five compounds are retold here after PubChem BioAssay AID540261 (Sanford-Burnham Center for Chemical Genomics, 2011).

In the assay the target is Alkaline phosphatase, tissue-nonspecific isozyme (Homo sapiens) (UniProt P05186). Description: inhibition of tissue-nonspecific alkaline phosphatase – biochemical, set 2, CDP-Star luminescence, selectivity assay for human IAP inhibitor project, SAR follow-up (AID 540261). The following applies: purified human TNAP, 30 min.
Alkaline phosphatase, tissue-nonspecific isozyme (Homo sapiens), sequence (P05186 whole entry, looked up): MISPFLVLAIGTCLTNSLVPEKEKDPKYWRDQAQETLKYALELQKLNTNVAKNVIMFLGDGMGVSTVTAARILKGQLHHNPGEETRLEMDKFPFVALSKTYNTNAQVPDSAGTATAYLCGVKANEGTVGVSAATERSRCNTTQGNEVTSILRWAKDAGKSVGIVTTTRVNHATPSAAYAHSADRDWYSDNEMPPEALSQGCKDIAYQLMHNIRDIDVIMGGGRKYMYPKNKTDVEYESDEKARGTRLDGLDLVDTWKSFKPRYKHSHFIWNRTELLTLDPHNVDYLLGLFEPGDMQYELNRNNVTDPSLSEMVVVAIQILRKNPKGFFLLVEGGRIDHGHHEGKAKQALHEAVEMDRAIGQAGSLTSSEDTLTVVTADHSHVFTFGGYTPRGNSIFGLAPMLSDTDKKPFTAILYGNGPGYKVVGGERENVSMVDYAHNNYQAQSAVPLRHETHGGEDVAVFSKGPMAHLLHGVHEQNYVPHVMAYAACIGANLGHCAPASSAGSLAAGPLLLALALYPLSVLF

Take `N#Cc1ccc(CNC(=O)CCNS(=O)(=O)c2ccc3[nH]c(=O)oc3c2)cc1`: the IC50 was > 100 µM (inactive).

Consider `COc1ccc(NC(=O)CNS(=O)(=O)c2ccc3[nH]c(=O)oc3c2)cc1OC`, for which the IC50 is > 100 µM (inactive).

As for `Cc1ccc(C)c(NC(=O)CCNS(=O)(=O)c2ccc3[nH]c(=O)oc3c2)c1`, the IC50 was > 100 µM (inactive).

As to `O=C(CNS(=O)(=O)c1ccc2[nH]c(=O)oc2c1)NCc1ccc2c(c1)OCO2`, the IC50 is > 100 µM (inactive).

`O=C(CNS(=O)(=O)c1ccc2[nH]c(=O)oc2c1)Nc1ccc2c(c1)OCO2`: the IC50 is > 100 µM (inactive).
